Measured values: ChEMBL document CHEMBL1201862, “PubChem BioAssay data set” (2004)
Active and inactive are the calls of the source.

How the values were obtained:
[1] = cells; type: functional
[2] = biological target: Cytochrome P450 2C9 (Homo sapiens, UniProt P11712)
[3] = microbe, parasite or virus in culture; type: functional; conditions: Mycobacterium tuberculosis
[4] = Luminescence Cell-Based Dose Retest to Confirm Inhibitors of Cancer Stem Cells. [Related pubchem assays (depositor defined):AID2717, AID2721]; type: functional; conditions: Homo sapiens
[5] = biological target: T1, Leucine aminopeptidase (Plasmodium falciparum 3D7, UniProt Q8IL11); assay: P. falciparum M17LAP inhibitors, primary screen, biochemical, fluorogenic H-Leu-NHMec substrate, 1536-well (AID 1619); type: functional
T1 sequence (Q8IL11 whole entry): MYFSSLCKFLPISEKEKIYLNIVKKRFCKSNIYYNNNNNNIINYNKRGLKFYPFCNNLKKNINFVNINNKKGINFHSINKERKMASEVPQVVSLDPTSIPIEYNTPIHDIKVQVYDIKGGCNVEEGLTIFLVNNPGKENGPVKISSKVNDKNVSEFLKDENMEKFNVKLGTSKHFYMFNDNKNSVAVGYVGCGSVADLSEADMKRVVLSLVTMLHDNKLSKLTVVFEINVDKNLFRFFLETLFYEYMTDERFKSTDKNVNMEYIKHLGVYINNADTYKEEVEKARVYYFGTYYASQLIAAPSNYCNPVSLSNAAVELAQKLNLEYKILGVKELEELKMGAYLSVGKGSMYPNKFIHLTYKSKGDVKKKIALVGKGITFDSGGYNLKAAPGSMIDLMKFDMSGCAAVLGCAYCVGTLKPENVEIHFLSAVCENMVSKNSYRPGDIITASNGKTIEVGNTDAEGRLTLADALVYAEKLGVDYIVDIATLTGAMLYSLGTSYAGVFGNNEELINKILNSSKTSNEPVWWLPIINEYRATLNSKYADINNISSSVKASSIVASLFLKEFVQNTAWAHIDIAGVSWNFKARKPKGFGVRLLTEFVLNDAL

[6] = NIH-3T3 fibroblast cytotoxicity, dose response, cytotoxicity control, cell-based, fluorescence, Alamar Blue, secondary assay (AID 2327); type: functional;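 note: NIH-3T3 mouse fibroblasts cultured with fluconazole at 8 µg/mL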
[7] = Luminescence Cell-Based Dose Confirmation HTS to Identify Inhibitors of Platelet Dense Granule Release. [Related pubchem assays: 1663 (Primary HTS), 1678 (Summary of Project)]; type: functional
[8] = biological target: T2, Cytochrome P450 1A2 (Homo sapiens, UniProt P05177);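 note: PubChem cytochrome P450 panel assay, CYP1A2 panel member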
T2 sequence (P05177 whole entry): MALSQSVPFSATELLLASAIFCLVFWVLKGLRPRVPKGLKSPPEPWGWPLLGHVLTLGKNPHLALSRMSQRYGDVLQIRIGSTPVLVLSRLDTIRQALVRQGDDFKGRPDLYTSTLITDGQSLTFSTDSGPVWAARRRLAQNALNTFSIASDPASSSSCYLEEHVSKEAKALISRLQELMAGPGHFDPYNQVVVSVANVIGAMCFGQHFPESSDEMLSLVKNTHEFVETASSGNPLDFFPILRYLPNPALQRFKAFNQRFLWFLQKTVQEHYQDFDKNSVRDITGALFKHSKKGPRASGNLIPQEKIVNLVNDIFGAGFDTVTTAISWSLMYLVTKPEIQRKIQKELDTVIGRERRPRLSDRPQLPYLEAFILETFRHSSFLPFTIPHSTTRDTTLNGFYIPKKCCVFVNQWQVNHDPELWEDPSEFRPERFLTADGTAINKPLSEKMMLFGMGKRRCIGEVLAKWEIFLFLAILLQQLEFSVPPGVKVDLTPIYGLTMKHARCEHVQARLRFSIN

[9] = biological target: Luciferin 4-monooxygenase (Photinus pyralis, UniProt P08659); assay: firefly luciferase enzyme inhibitors, dose response, biochemical, luminescence (AID 1891)
[10] = biological target: Cytochrome P450 2D6 (Homo sapiens, UniProt P10635);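 note: CYP2D6 member of a cytochrome P450 panel assay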
[11] = C. albicans growth with fluconazole, confirmation, fluorescence, retest (AID 2467); type: functional, cell-based
[12] = biological target: Cytochrome P450 2C19 (Homo sapiens, UniProt P33261); assay: Cytochrome panel assay with activity outcomes. Panel member name: p450-cyp2c19 Compounds with AC50 equal or less than 10 uM are considered active; type: functional; conditions: read-out: AC50
[13] = system: H9c2; assay: cells; type: functional, cell-based; conditions: Rattus norvegicus, H9c2, Myocardium;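 note: confirmatory concentration-response retest of ultra-high-throughput screening hits for modulation of myocardial damage; cell death induced by hydrogen peroxide oxidative stress; compound pretreatment for 60 min then peroxide exposure for 2 h; potency is for protecting the cells against peroxide damage rather than for killing them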
[14] = biological target: Cytochrome P450 3A4 (Homo sapiens, UniProt P08684);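 note: CYP3A4 tested as one member of a cytochrome P450 panel screen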
[15] = system: INS1; assay: beta cell apoptosis inhibitors, cytokine rescue, dose response, luminescence, retest (AID 449756); type: functional, cell-based; conditions: Rattus norvegicus;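 note: cell death triggered by IL-1 beta plus TNF-alpha plus IFN-gamma mixture; protective hits raise ATP signal compared with cytokine alone wells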
[16] = Shn3 3'UTR reporter inhibitors, dose response, cell-based, Clone20 osteoblasts, firefly luciferase, cherry-picked (AID 624132); type: functional;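 note: firefly luciferase luminescence from reporter carrying the Shn3 3'UTR in osteoblasts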
[17] = control 3'UTR Renilla luciferase suppression, dose response, counter-screen for Shn3 inhibitor project, cell-based, Clone20-Shn3RL, cherry-picked (AID 624133); type: functional
[18] = HepG2 cell cytotoxicity, dose response, cytotoxicity control for Shn3 inhibitor project, CellTiter-Glo, cherry-picked (AID 624134); type: functional, cell-based
[19] = biological target: T3, Protein skinhead-1 (Caenorhabditis elegans, UniProt P34707); type: functional
T3 sequence (P34707 whole entry): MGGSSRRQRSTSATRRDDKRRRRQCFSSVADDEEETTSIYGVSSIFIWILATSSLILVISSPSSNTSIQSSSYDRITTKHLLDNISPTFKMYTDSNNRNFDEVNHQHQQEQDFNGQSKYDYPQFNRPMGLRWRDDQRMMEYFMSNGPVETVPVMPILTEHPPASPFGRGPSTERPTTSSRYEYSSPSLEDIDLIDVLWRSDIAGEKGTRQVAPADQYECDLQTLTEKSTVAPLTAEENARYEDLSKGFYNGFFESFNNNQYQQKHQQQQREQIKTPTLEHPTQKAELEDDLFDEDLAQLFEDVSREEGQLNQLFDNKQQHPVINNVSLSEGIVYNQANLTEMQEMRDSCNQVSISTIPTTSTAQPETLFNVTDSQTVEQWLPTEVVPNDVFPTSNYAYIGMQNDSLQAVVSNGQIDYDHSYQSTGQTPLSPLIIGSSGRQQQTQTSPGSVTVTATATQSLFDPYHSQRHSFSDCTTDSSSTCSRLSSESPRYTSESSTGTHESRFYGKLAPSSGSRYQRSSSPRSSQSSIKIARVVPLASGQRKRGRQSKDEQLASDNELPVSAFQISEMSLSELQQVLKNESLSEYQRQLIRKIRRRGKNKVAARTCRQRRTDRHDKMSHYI

[20] = system: P388; assay: cells; type: functional; conditions: Mus musculus
[21] = system: P388/ADR; assay: cells; type: functional; conditions: Mus musculus
[22] = system: SN12K1; assay: cells; type: functional; conditions: Homo sapiens
[23] = inhibitors of HIV Env-driven cell fusion, dose response, cherry-pick (AID 652057); type: functional, cell-based

Chain of Cytochrome P450 3A4 (P08684 whole entry): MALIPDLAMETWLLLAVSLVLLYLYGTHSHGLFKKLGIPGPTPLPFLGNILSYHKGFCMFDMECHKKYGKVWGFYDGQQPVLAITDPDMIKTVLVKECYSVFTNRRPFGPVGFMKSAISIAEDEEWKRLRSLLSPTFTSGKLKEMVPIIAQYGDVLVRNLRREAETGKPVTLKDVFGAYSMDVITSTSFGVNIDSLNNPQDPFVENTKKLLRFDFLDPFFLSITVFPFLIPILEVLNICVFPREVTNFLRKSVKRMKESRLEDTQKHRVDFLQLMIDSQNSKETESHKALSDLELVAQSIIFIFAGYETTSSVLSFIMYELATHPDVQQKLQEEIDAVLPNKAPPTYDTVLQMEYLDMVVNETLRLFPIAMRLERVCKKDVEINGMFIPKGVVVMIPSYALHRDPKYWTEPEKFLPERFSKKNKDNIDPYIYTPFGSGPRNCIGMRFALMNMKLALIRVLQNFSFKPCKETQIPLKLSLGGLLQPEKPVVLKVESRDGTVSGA
Chain of Cytochrome P450 2C9 (P11712 whole entry): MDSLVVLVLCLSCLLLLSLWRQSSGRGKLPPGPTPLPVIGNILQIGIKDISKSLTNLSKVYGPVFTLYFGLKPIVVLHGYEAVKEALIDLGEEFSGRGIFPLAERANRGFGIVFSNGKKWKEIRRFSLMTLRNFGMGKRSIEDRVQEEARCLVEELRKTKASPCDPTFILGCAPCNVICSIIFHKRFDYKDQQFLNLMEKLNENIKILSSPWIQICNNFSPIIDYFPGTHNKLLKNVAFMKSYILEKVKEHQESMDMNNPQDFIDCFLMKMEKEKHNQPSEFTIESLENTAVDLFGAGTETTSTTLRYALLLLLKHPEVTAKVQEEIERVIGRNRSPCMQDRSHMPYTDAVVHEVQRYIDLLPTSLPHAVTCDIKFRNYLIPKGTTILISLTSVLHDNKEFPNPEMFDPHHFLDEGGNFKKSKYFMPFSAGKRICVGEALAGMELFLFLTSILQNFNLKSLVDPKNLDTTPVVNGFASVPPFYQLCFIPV
Chain of Cytochrome P450 2C19 (P33261 whole entry): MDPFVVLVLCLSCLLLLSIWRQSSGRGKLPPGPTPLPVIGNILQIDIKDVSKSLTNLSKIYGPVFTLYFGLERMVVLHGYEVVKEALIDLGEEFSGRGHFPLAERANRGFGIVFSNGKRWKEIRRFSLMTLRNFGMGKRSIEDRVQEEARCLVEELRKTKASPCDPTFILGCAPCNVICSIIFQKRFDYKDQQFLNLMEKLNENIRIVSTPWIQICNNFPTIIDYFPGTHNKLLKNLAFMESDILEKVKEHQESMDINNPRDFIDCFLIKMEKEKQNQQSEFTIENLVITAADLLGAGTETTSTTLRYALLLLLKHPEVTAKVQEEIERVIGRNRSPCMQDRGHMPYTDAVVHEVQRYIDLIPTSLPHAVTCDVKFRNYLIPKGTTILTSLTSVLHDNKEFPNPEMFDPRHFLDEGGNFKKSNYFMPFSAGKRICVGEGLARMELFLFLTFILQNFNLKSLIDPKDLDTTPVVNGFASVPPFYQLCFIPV
Chain of Luciferin 4-monooxygenase (P08659 whole entry): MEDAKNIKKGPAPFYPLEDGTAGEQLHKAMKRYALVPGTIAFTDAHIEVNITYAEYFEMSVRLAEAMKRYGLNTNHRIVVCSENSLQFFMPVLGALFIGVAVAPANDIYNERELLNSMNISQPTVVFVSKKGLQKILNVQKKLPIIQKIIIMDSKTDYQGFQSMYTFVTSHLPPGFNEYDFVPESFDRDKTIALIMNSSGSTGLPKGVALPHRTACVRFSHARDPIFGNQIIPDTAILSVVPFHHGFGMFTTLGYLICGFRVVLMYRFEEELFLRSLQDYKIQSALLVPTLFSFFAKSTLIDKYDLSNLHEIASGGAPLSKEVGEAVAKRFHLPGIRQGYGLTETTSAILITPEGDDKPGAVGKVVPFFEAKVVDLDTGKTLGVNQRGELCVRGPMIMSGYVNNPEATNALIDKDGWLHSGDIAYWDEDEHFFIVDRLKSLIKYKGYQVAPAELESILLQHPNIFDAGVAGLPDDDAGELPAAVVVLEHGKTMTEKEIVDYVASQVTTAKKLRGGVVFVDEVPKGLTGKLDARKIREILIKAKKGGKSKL
Chain of Cytochrome P450 2D6 (P10635 whole entry): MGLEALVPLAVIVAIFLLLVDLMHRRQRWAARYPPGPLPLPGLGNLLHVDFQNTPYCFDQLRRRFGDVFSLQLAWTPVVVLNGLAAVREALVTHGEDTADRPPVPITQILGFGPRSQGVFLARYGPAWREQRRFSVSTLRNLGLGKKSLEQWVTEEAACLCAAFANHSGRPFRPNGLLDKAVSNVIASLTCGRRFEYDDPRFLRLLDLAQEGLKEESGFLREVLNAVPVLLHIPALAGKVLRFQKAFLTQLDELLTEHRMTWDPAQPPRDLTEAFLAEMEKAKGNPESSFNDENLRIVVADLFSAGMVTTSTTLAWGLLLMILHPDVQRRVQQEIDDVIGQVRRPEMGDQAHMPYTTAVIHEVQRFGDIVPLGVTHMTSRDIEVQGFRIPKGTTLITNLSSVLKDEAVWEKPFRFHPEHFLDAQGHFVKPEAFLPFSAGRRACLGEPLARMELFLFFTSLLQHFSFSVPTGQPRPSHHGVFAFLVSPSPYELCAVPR

CCCNC(=O)COC(=O)c1cc2c(=O)n3ccccc3nc2s1
IC50 [1]: 39.2 µM (active)

Cc1cc2nnc(SCC(=O)OC(C)C)n2c2ccccc12
AC50 [2]: inconclusive

COc1cc(/C=C(\C#N)C(=O)NCC2CCCO2)c([N+](=O)[O-])cc1OC (configuration not stated)
AC50 [2]: inconclusive

CCCOc1ccc2c(c1)C(=NN=C(N)N)c1cc(OCCC)ccc1-2
CC50 [3]: 12.2 µM (active)
AC50 [4]: 3.33 µM (active)

Cc1cc(NS(=O)(=O)c2ccc(NC(=O)c3cnc4scc(C)n4c3=O)cc2)nc(C)n1
IC50 [5]: 23.1 µM (active)

CCOc1ccc(CN(C(=O)c2oc3ccccc3c2C)C2CCS(=O)(=O)C2)cc1 (configuration not stated)
EC50 [6]: > 160 µM (inconclusive)
EC50 [7]: > 112 µM (not active)
AC50 [8]: 14.1 µM (inconclusive)
EC50 [9]: 28.3 µM (active)
AC50 [10]: 14.1 µM (inconclusive)
EC50 [11]: > 38 µM (not active)

CCC(C)NC(=O)NC(=O)N(C1CCCCC1)S(C)(=O)=O (configuration not stated)
AC50 [2]: inconclusive
AC50 [12]: 17.8 µM (inconclusive)

CC(C)(C)NC(=O)c1cc(NC(=O)c2cccs2)cc(NC(=O)c2cccs2)c1
IC50 [13]: 11.1 µM (active)

C[C@H](NC(=O)c1[nH]cnc1C(=O)NCC(=O)OCc1ccccc1)C(=O)OCc1ccccc1
IC50 [13]: 19.4 µM (active)

COC(=O)c1cc(OC)c(OC)cc1NC(=O)c1ccc(OC)c(OC)c1
IC50 [13]: > 79 µM (inactive)

COc1ccc(S(=O)(=O)N(C)CC(=O)NCc2ccco2)cc1
AC50 [2]: inconclusive
AC50 [14]: 15.8 µM (inconclusive)

Clc1ccc(Cl)c(OCc2cc(-c3ccccc3Cl)on2)c1
AC50 [2]: inconclusive
AC50 [8]: 0.282 µM (inconclusive)
AC50 [12]: 0.891 µM (inconclusive)

Clc1ccc(-c2[nH]ncc2N=Nc2ccccc2)cc1
CC50 [3]: > 40 µM (active)
AC50 [15]: > 120 µM (inactive)

Cc1ccc(-c2ccc(=O)n(CC(=O)NCCN3CCCCC3C)n2)cc1 (configuration not stated)
AC50 [2]: inconclusive
AC50 [12]: 35.5 µM (inconclusive)
AC50 [14]: 17.8 µM (inconclusive)

O=C(OCC(=O)N1CCCCC1)c1cc2ccccc2cc1O
IC50 [1]: 5.15 µM (active)

NC(=O)c1ccc(Nc2nnc(-c3ccc(O)cc3)c3ccccc23)cc1
EC50 [6]: > 150 µM (inactive)
EC50 [11]: > 38 µM (not active)
IC50 [13]: 15 µM (active)

CCOC(=O)Cn1c(=S)[nH]c2c(oc3ccc(Cl)cc32)c1=O
IC50 [5]: 19.5 µM (active)

CSc1ncc(C(=O)Nc2ccc(Br)cn2)c(C)n1
CC50 [3]: > 40 µM (active)

CC1Nc2ncnc(N3CCN(c4ccccc4)CC3)c2N(Cc2ccc(Br)cc2)C1=O (configuration not stated)
CC50 [3]: > 40 µM (active)
IC50 [13]: > 79 µM (inactive)

Cc1ccc(S(=O)(=O)N2CCOCC2)cc1C(=O)Nc1nc(-c2ccccn2)cs1
AC50 [15]: 2.19 µM (active)
IC50 [13]: 11.3 µM (active)

COc1ccc(Sc2nc3ccccc3n3c(C(F)(F)F)nnc23)cc1
AC50 [2]: inconclusive
AC50 [8]: 3.16 µM (inconclusive)
AC50 [12]: 35.5 µM (inconclusive)

CCc1nc(N2CCN(C(C)=O)CC2)c2c3c(sc2n1)CC(C(C)(C)C)CC3 (configuration not stated)
AC50 [16]: 6.76 µM (active)
AC50 [17]: 11.3 µM (active)
CC50 [3]: > 40 µM (active)
AC50 [18]: 58.6 µM (active)
AC50 [15]: 3.36 µM (active)

O=C(NCc1cccs1)c1cc(-c2ccc(O)cc2)on1
IC50 [1]: 45 µM (active)

O=S(=O)(Nc1ccc(C(F)(F)F)cc1)c1c[nH]cn1
IC50 [19]: > 100 µM (inactive)
IC50 [5]: 28.3 µM (active)

Cc1ccc(-n2cc(-c3ccccc3)c3c(N4CCOCC4)ncnc32)cc1
IC50 [13]: > 79 µM (inactive)

CSc1nnc(NC(=O)c2cc3ccccc3oc2=O)s1
IC50 [13]: > 79 µM (inactive)

CCS(=O)(=O)N1CCC(C(=O)NCc2ccccc2OC)CC1
AC50 [2]: inconclusive

O=C(COC(=O)c1ccc([N+](=O)[O-])o1)Nc1ccc(N2CCOCC2)cc1
IC50 [13]: > 79 µM (inactive)

COc1ccc(C2CC(c3sc(Nc4ccc(C)cc4)nc3C)=NN2)cc1 (configuration not stated)
GI50 [20]: 6.79 µM (inactive)
GI50 [21]: 4.99 µM (inactive)
GI50 [22]: 14.9 µM (inactive)

O=NN(CCCl)C(=O)N[C@H]1CC[C@H](C(=O)O)CC1
GI50 [20]: 4.86 µM (inactive)
GI50 [21]: 7.1 µM (inactive)
GI50 [22]: > 100 µM (inactive)

NC(CN(O)N=O)C(=O)O (configuration not stated)
GI50 [20]: 16.5 µM (inactive)
GI50 [21]: 8.45 µM (inactive)
GI50 [22]: 0.792 µM (active)

C[C@@H]1CN([C@@H](C)CO)C(=O)Cc2cc(NC(=O)c3ccncc3)ccc2O[C@H]1CN(C)Cc1ccc(Cl)c(Cl)c1
AC50 [23]: 30.4 µM (active)

C=C1CC(OC)(C(O)C(=O)N[C@H]2OCO[C@H]3C2O[C@H](C[C@@H](COC)OC)C(C)(C)C3OC)O[C@H](C)[C@@H]1C (some centres not stated)
GI50 [20]: < 0.00482 µM (active)
GI50 [21]: < 0.00482 µM (active)
GI50 [22]: < 0.00482 µM (active)

C=C1C(=O)C[C@@]23CCC[C@@]12CC(OCOC)C3 (some centres not stated)
GI50 [20]: 0.431 µM (active)
GI50 [21]: 0.531 µM (active)
GI50 [22]: 1.84 µM (inactive)

CN1C(=O)/C(=C/c2ccco2)S/C1=N/c1cccc(C(=O)O)c1
IC50 [5]: 50.6 µM (active)

FC(F)(F)c1ccc(/C=N/N2CCN(Cc3cccc4ccccc34)CC2)cc1
AC50 [2]: inconclusive
AC50 [12]: 11.2 µM (inconclusive)

NC(=O)c1ncn2c1NC(=O)CC2
GI50 [20]: > 31.6 µM (inactive)
GI50 [21]: > 100 µM (inactive)
GI50 [22]: > 100 µM (inactive)

COc1cc(NS(C)(=O)=O)ccc1Nc1c2ccccc2nc2ccccc12 [AMSACRINE]
AC50 [2]: inconclusive
GI50 [20]: 0.0318 µM (active)
GI50 [21]: 0.265 µM (active)
AC50 [14]: 20 µM (inconclusive)
GI50 [22]: 0.106 µM (active)

COc1cc(C[C@H]2c3cc(OC)c(OC)cc3CCN2C)c(Oc2cc3c(cc2OC)-c2c(OC)c(OC)cc4c2[C@H](C3)N(C)CC4)cc1OC [THALICARPINE]
GI50 [20]: 4.24 µM (inactive)
GI50 [21]: 8.51 µM (inactive)
GI50 [22]: 7.93 µM (inactive)
